Columns and labels:
[1] = Rat PK Study 1: intraduodenal/intracolonic dosing with absorption enhancers; assay type: in vivo, Sprague Dawley rats; conditions: for AUC(0-inf) / AUC(0-t) / Cmax / Tmax: male, Sprague Dawley, plasma, 10 mg/kg
Protocol: In this Example, a screen of various absorption enhancers was assessed. […] The following absorption enhancers were tested: sodium caprate (NaCl0), sodium salcaprozate (SNAC), sucrose laureate, Peptelligence (proprietary technology from Enteris Pharma-undisclosed composition) and Labrasol. The solutions were dosed by intracolonic (IC) or intraduodenal (ID) injection to rats. […] NaCl0 gave the highest systemic exposure followed by Peptelligence, then Labrasol, then SNAC, and finally sucrose laureate. Accordingly, sodium caprate was determined to be a preferred absorption enhancer. […] Therefore, the systemic exposure is likely to be high enough to afford systemic activity.
The following absorption enhancers were evaluated: sodium caprate (NaCl0, 100 mg/kg), SNAC (100 mg/kg), sucrose laurate (100 mg/kg), Enteris A (proprietary technology of Enteris Pharma) (60 mg/kg), and Labrasol (100 mg/kg).

[2] = system: IL-23 induced expression of IL-17A, IL-17F, and IL-22; experiment: Rat skin gene expression downstream of intradermal IL-23; assay type: in vivo, Sprague-Dawley rats
Protocol: Ear inflammation was induced in Sprague-Dawley rats by daily intradermal injection of recombinant rat IL-23 on study days 0-3. Treatment with the peptide of SEQ ID NO: 1 (dose response by oral gavage; 1, 3, 10, 30, 100, and 300 mg/kg, twice a day) was initiated prophylactically starting one day prior to and continued through day 3 after induction of inflammation. All rats were humanely euthanized on day 4. An anti-IL-23 monoclonal antibody (administered intraperitoneally on days −1 and day 3) was included in all studies as a positive control and comparator.
Test article was dissolved into phosphate buffer at the appropriate concentrations and aliquoted for each dose and stored at 4° C. Retentions of each dose formulation were obtained after the initial preparation and following the final dose on day 3 into Eppendorf tubes and stored at −80° C. for bioanalysis of test article by LCMS.
Recombinant rat IL-23 was diluted with PBS to a concentration of 75 μg/mL, divided into 2.0 mL aliquots, and stored at −80° C. Daily from day 0 through day 3, rats were anesthetized with isoflurane and IL-23 was intradermally injected (i.d.) into the right ear (1.5 μg in a volume of 20 μL). In the control group, 20 μL of PBS was injected.
Starting the morning prior to IL-23 injection through the evening of day 3, rats were dosed with either vehicle (phosphate buffer) or the peptide of SEQ ID NO: 1 compound twice daily (approximately 10 hours apart between doses during the day) by oral gavage (p.o.) in a volume of 5 mL/kg. In one experiment, the peptide of SEQ ID NO: 1 was also administered subcutaneously (s.c.) in a volume of 5 mL/kg.
Anti-IL-23p19 antibody or isotype antibody was administered via intraperitoneal injection (i.p.) in a volume of 5 mL/kg on days −1 and 3.
At the end of the study, four days after induction with IL-23 (approximately 16 hours after the evening dose on day 3), animals were euthanized by CO2 asphyxiation. The ear tissue was weighed, snap frozen, and stored at −80° C. for gene expression analysis of inflammatory genes (IL-22, IL-17A, IL-17F, TNF). […]

[3] = other: intracolonic, IC dose 10 mg/kg, Enteris A 60 mg/kg
[4] = other: intracolonic, IC dose 10 mg/kg, Labrasol 100 mg/kg
[5] = other: intracolonic, IC dose 10 mg/kg, NaC10 100 mg/kg
[6] = other: intracolonic, IC dose 10 mg/kg, SNAC 100 mg/kg
[7] = other: intracolonic, IC dose 10 mg/kg, Sucrose laurate 100 mg/kg
[8] = other: intracolonic, IC dose 10 mg/kg, no absorption enhancer
[9] = other: intraduodenal, ID dose 10 mg/kg, Enteris A 60 mg/kg
[10] = other: intraduodenal, ID dose 10 mg/kg, Labrasol 100 mg/kg
[11] = other: intraduodenal, ID dose 10 mg/kg, NaC10 100 mg/kg
[12] = other: intraduodenal, ID dose 10 mg/kg, SNAC 100 mg/kg
[13] = other: intraduodenal, ID dose 10 mg/kg, Sucrose laurate 100 mg/kg
[14] = other: intraduodenal, ID dose 10 mg/kg, no absorption enhancer

## CC(=O)NCCCC[C@@H]1NC(=O)[C@H](Cc2c[nH]c3c(C)cccc23)NC(=O)[C@H]([C@@H](C)O)NC(=O)[C@H](CC(N)=O)NC(=O)[C@@H](NC(C)=O)C(C)(C)SSC(C)(C)[C@@H](C(=O)N[C@@H](Cc2ccc(OCCN)cc2)C(=O)N[C@@H](Cc2ccc3ccccc3c2)C(=O)NC2(C(=O)N[C@@H](CCC(=O)O)C(=O)N[C@@H](CC(N)=O)C(=O)N[C@@H](Cc3cccnc3)C(=O)N(C)CC(N)=O)CCOCC2)NC1=O [SEQ ID NO: 1, Ac-[Pen]*—N-T-[W(7-Me)]-[Lys(Ac)]-[Pen]*-Phe[4-(2-aminoethoxy)]-[2-Nal]-[THP]-E-N-[3-Pal]-Sarc-NH2]
[1]; IC dose 10 mg/kg, Enteris A 60 mg/kg
  Fabs: 2.98%
[1]; IC dose 10 mg/kg, Labrasol 100 mg/kg
  Fabs: 5.82%
[1]; IC dose 10 mg/kg, NaC10 100 mg/kg
  Fabs: 6.36%
[1]; IC dose 10 mg/kg, SNAC 100 mg/kg
  Fabs: 1.64%
[1]; IC dose 10 mg/kg, Sucrose laurate 100 mg/kg
  Fabs: 0.939%
[1]; IC dose 10 mg/kg, no absorption enhancer
  Fabs: 0.0531%
[1]; ID dose 10 mg/kg, Enteris A 60 mg/kg
  Fabs: 5.06%
[1]; ID dose 10 mg/kg, Labrasol 100 mg/kg
  Fabs: 3.26%
[1]; ID dose 10 mg/kg, NaC10 100 mg/kg
  Fabs: 6.24%
[1]; ID dose 10 mg/kg, SNAC 100 mg/kg
  Fabs: 1.13%
[1]; ID dose 10 mg/kg, Sucrose laurate 100 mg/kg
  Fabs: 0.764%
[1]; ID dose 10 mg/kg, no absorption enhancer
  Fabs: 0.360%
[1]; [3]
  AUC(0-inf): 567 ng·h/mL
  AUC(0-t): 561 ng·h/mL
  Cmax: 626 ng/mL
  Tmax: 15 min
[1]; [4]
  AUC(0-inf): 1110 ng·h/mL
  AUC(0-t): 1100 ng·h/mL
  Cmax: 976 ng/mL
  Tmax: 15 min
[1]; [5]
  AUC(0-inf): 1210 ng·h/mL
  AUC(0-t): 1210 ng·h/mL
  Cmax: 1030 ng/mL
  Tmax: 20 min
[1]; [6]
  AUC(0-inf): 312 ng·h/mL
  AUC(0-t): 309 ng·h/mL
  Cmax: 309 ng/mL
  Tmax: 20 min
[1]; [7]
  AUC(0-inf): 179 ng·h/mL
  AUC(0-t): 176 ng·h/mL
  Cmax: 191 ng/mL
  Tmax: 15 min
[1]; [8]
  Cmax: 4.99 ng/mL
  Tmax: 35 min
[1]; [9]
  AUC(0-inf): 964 ng·h/mL
  AUC(0-t): 958 ng·h/mL
  Cmax: 988 ng/mL
  Tmax: 15 min
[1]; [10]
  AUC(0-inf): 621 ng·h/mL
  AUC(0-t): 617 ng·h/mL
  Cmax: 625 ng/mL
  Tmax: 15 min
[1]; [11]
  AUC(0-inf): 1190 ng·h/mL
  AUC(0-t): 1190 ng·h/mL
  Cmax: 1220 ng/mL
  Tmax: 15 min
[1]; [12]
  AUC(0-inf): 215 ng·h/mL
  AUC(0-t): 210 ng·h/mL
  Cmax: 209 ng/mL
  Tmax: 15 min
[1]; [13]
  AUC(0-inf): 145 ng·h/mL
  AUC(0-t): 141 ng·h/mL
  Cmax: 107 ng/mL
  Tmax: 15 min
[1]; [14]
  AUC(0-inf): 68.6 ng·h/mL
  Cmax: 23.1 ng/mL
  Tmax: 40 min
[1]; other: intraduodenal, ID dose 10 mg/kg, no absorption enhancer, last time point 2, 4, 6, 8, or 24 hours
  AUC(0-t): 62 ng·h/mL
[2]; all tested doses (1-300 mg/kg b.i.d., oral)
  median IL-17A expression in skin: reduced
[2]; doses of 10 mg/kg (b.i.d.) or higher
  reduction of median IL-17A expression in skin: comparable degree as anti-IL-23 antibody
[2]; oral, 1-300 mg/kg b.i.d., days -1 to 3, dose dependent
  IL-23 induced expression of IL-17A, IL-17F, and IL-22 in skin: attenuated

Reference: patent US11939361B2, “Compositions of peptide inhibitors of Interleukin-23 receptor” (Janssen Pharmaceutica NV, priority 2020, dated 2024)
